PubChem BioAssay AID248 (DTP/NCI, 2004)
“And” between values parts separate entries of the source, which are not always exact repeats. Equal entries are not always repeated. Toxic doses and inconclusive results are not listed. No stated cut-off is given here; in the data, active means T/C of 150% or more; inactive means T/C below 125%.

System: L1210 leukemia ip in BDF1 mice, survival T/C
Test: NCI In Vivo Anticancer Drug Screen. Data for tumor model L1210 Leukemia (intraperitoneal) in B6D2F1 (BDF1) mice
Details: endpoint: mean survival time, higher = longer survival
How it was run: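 Ratio derived from survival: compound-dosed mice over vehicle-dosed mice, all bearing a transplantable tumor.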

[1] = dose: 100.0 mg/kg/injection, schedule: Q01DX009 (ip), vehicle: saline with Tween-80
[2] = dose: 200.0 mg/kg/injection, schedule: Q01DX009 (ip), vehicle: saline with Tween-80
[3] = dose: 100.0 mg/kg/injection, schedule: Q01DX009 (ip), vehicle: Klucel (hydroxypropylcellulose) (HPC)
[4] = dose: 100.0 mg/kg/injection, schedule: Q04DX003 (ip), vehicle: Klucel (hydroxypropylcellulose) (HPC)
[5] = dose: 200.0 mg/kg/injection, schedule: Q01DX009 (ip), vehicle: Klucel (hydroxypropylcellulose) (HPC)
[6] = dose: 200.0 mg/kg/injection, schedule: Q04DX003 (ip), vehicle: Klucel (hydroxypropylcellulose) (HPC)
[7] = dose: 400.0 mg/kg/injection, schedule: Q01DX009 (ip), vehicle: Klucel (hydroxypropylcellulose) (HPC)
[8] = dose: 400.0 mg/kg/injection, schedule: Q04DX003 (ip), vehicle: Klucel (hydroxypropylcellulose) (HPC)
[9] = dose: 100.0 mg/kg/injection, schedule: Q04DX003 (ip), vehicle: saline with Tween-80
[10] = dose: 200.0 mg/kg/injection, schedule: Q04DX003 (ip), vehicle: saline with Tween-80
[11] = dose: 100.0 mg/kg/injection, schedule: Q01DX009 (ip), vehicle: saline
[12] = dose: 100.0 mg/kg/injection, schedule: Q04DX003 (ip), vehicle: saline
[13] = dose: 200.0 mg/kg/injection, schedule: Q04DX003 (ip), vehicle: saline
[14] = dose: 100.0 mg/kg/injection, schedule: Q01DX001 (ip), vehicle: carboxymethylcellulose (CMC)
[15] = dose: 200.0 mg/kg/injection, schedule: Q01DX001 (ip), vehicle: carboxymethylcellulose (CMC)
[16] = dose: 400.0 mg/kg/injection, schedule: Q01DX001 (ip), vehicle: carboxymethylcellulose (CMC)
[17] = dose: 25.0 mg/kg/injection, schedule: Q01DX009 (ip), vehicle: Klucel (hydroxypropylcellulose) (HPC)
[18] = dose: 50.0 mg/kg/injection, schedule: Q01DX009 (ip), vehicle: Klucel (hydroxypropylcellulose) (HPC)

Measured: T/C

O=C(/C(=C\c1ccccc1)CBr)c1ccc(Br)cc1
inactive: dose: 3.12 mg/kg/injection, schedule: Q01DX009 (ip), vehicle: saline 100 % of control | dose: 6.25 mg/kg/injection, schedule: Q01DX009 (ip), vehicle: saline 100 % of control | dose: 12.5 mg/kg/injection, schedule: Q01DX009 (ip), vehicle: saline 94 % of control and 89 % of control | dose: 12.5 mg/kg/injection, schedule: Q04DX003 (ip), vehicle: saline with Tween-80 96 % of control | dose: 25.0 mg/kg/injection, schedule: Q04DX003 (ip), vehicle: saline with Tween-80 93 % of control | dose: 50.0 mg/kg/injection, schedule: Q04DX003 (ip), vehicle: saline with Tween-80 94 % of control

O=C(COc1cccc(Cl)c1)Nc1ccc(Cl)cc1
inactive: dose: 100.0 mg/kg/injection, schedule: Q01DX009 (ip), vehicle: gum acacia 86 % of control | dose: 200.0 mg/kg/injection, schedule: Q01DX009 (ip), vehicle: gum acacia 86 % of control | dose: 400.0 mg/kg/injection, schedule: Q01DX009 (ip), vehicle: gum acacia 87 % of control

C[C@]12CC[C@@H]3c4ccc(OC5CCCCO5)cc4CC[C@H]3[C@@H]1CC[C@@H]2O (stereo partly specified)
inactive: dose: 146.0 mg/kg/injection, schedule: Q01DX Z (ip), vehicle: steriod suspending solution 96 % of control | dose: 220.0 mg/kg/injection, schedule: Q01DX Z (ip), vehicle: steriod suspending solution 94 % of control | dose: 330.0 mg/kg/injection, schedule: Q01DX Z (ip), vehicle: steriod suspending solution 98 % of control | dose: 500.0 mg/kg/injection, schedule: Q01DX001 (sc), vehicle: steriod suspending solution 102 % of control | dose: 500.0 mg/kg/injection, schedule: Q01DX Z (ip), vehicle: steriod suspending solution 90 % of control | dose: 600.0 mg/kg/injection, schedule: Q01DX001 (sc), vehicle: steriod suspending solution 100 % of control | dose: 700.0 mg/kg/injection, schedule: Q01DX001 (sc), vehicle: steriod suspending solution 96 % of control | dose: 800.0 mg/kg/injection, schedule: Q01DX001 (sc), vehicle: steriod suspending solution 102 % of control

c1ccc(-c2nc(N3CCOCC3)nc3ccccc23)cc1
inactive: [1] 94 % of control | [2] 90 % of control

CS(=O)(=O)c1ccc(/C=C2/C=Cc3ccccc32)cc1
inactive: [3] 95 % of control | [4] 96 % of control | [5] 103 % of control | [6] 96 % of control | [7] 95 % of control | [8] 98 % of control

CCOC(=O)c1cnc(NN)nc1Nc1ccccc1Cl
inactive: [9] 92 % of control | [10] 96 % of control

CCS(=O)(=O)CC(C)O (stereo unspecified)
inactive: [11] 90 % of control | dose: 100.0 mg/kg/injection, schedule: Q04DX002 (ip), vehicle: saline 101 % of control | dose: 200.0 mg/kg/injection, schedule: Q01DX009 (ip), vehicle: saline 93 % of control | dose: 400.0 mg/kg/injection, schedule: Q01DX009 (ip), vehicle: saline 104 % of control | dose: 400.0 mg/kg/injection, schedule: Q04DX002 (ip), vehicle: saline 108 % of control

N=C(N)SCc1ccc(C(=O)Oc2ccc([N+](=O)[O-])cc2)cc1
inactive: dose: 25.0 mg/kg/injection, schedule: Q01DX009 (ip), vehicle: saline 97 % of control | dose: 50.0 mg/kg/injection, schedule: Q01DX009 (ip), vehicle: saline 100 % of control and 103 % of control | [11] 106 % of control | [12] 101 % of control | [13] 98 % of control

CCOC(=O)NC1C2CC3C(C2)C31 (stereo unspecified)
inactive: dose: 50.0 mg/kg/injection, schedule: Q01DX001 (ip), vehicle: carboxymethylcellulose (CMC) 107 % of control | [14] 103 % of control | [15] 101 % of control | [16] 109 % of control

CC1(C)N=C(N)N=C(N)N1CCCOc1ccc(NC(=O)Nc2cccc(S(=O)(=O)F)c2)cc1
inactive: dose: 25.0 mg/kg/injection, schedule: Q01DX001 (ip), vehicle: saline with Tween-80 102 % of control | dose: 50.0 mg/kg/injection, schedule: Q01DX001 (ip), vehicle: saline with Tween-80 100 % of control

O=[N+]([O-])c1ccc2nccc(Cl)c2c1
inactive: [17] 97 % of control | [18] 92 % of control | [4] 95 % of control

S=P(S)(Oc1ccc(Cl)cc1Cl)Oc1ccc(Cl)cc1Cl.[Cd]
inactive: dose: 25.0 mg/kg/injection, schedule: Q04DX002 (ip), vehicle: saline with Tween-80 89 % of control | dose: 50.0 mg/kg/injection, schedule: Q04DX002 (ip), vehicle: saline with Tween-80 92 % of control | dose: 100.0 mg/kg/injection, schedule: Q04DX002 (ip), vehicle: saline with Tween-80 123 % of control

Nc1nc2c(nnn2C2CC(O)C(COP(=O)(O)O)O2)c(=O)[nH]1 (stereo unspecified)
inactive: dose: 100.0 mg/kg/injection, schedule: Q01DX001 (ip), vehicle: Klucel (hydroxypropylcellulose) (HPC) 96 % of control | dose: 200.0 mg/kg/injection, schedule: Q01DX001 (ip), vehicle: Klucel (hydroxypropylcellulose) (HPC) 91 % of control | dose: 400.0 mg/kg/injection, schedule: Q01DX001 (ip), vehicle: Klucel (hydroxypropylcellulose) (HPC) 94 % of control

O=C(O)C(Cc1ccccc1)C(=O)O.[NH2-].[NH2-].[Pt+2]
inactive: dose: 25.0 mg/kg/injection, schedule: Q04DX003 (ip), vehicle: Klucel (hydroxypropylcellulose) (HPC) 102 % of control | dose: 50.0 mg/kg/injection, schedule: Q04DX003 (ip), vehicle: Klucel (hydroxypropylcellulose) (HPC) 98 % of control | [4] 119 % of control | [6] 104 % of control

O=[N+]([O-])c1sc2ccccc2c1Br
inactive: dose: 5.0 mg/kg/injection, schedule: Q04DX002 (ip), vehicle: Klucel (hydroxypropylcellulose) (HPC) 101 % of control | dose: 10.0 mg/kg/injection, schedule: Q04DX002 (ip), vehicle: Klucel (hydroxypropylcellulose) (HPC) 97 % of control | dose: 20.0 mg/kg/injection, schedule: Q04DX002 (ip), vehicle: Klucel (hydroxypropylcellulose) (HPC) 97 % of control

O=C(NCc1ccccc1)c1ccc(C(=O)NCc2ccccc2)cc1
inactive: dose: 100.0 mg/kg/injection, schedule: Q01DX001 (ip), vehicle: other 90 % of control | dose: 200.0 mg/kg/injection, schedule: Q01DX001 (ip), vehicle: other 88 % of control | dose: 400.0 mg/kg/injection, schedule: Q01DX001 (ip), vehicle: other 96 % of control

O=C1C(O)=C(Cl)C(=O)C(O)=C1Cl
inactive: [1] 106 % of control | [12] 114 % of control | [2] 95 % of control | [13] 120 % of control | dose: 400.0 mg/kg/injection, schedule: Q04DX003 (ip), vehicle: saline 116 % of control

O=C(Oc1cc(OC(=O)c2ccccc2)cc(OC(=O)c2ccccc2)c1)c1ccccc1
inactive: [3] 95 % of control | [4] 100 % of control | [5] 95 % of control | [6] 100 % of control | [7] 95 % of control | [8] 100 % of control

CCOC(=O)C1=C(C)NC(C)=C(C(=O)OCC)C1C
inactive: [14] 111 % of control | [15] 116 % of control | [16] 106 % of control

O=C(O)CCCCCCC(=O)OCC(=O)c1ccc(-c2ccccc2)cc1
inactive: dose: 100.0 mg/kg/injection, schedule: Q01DX001 (ip), vehicle: saline 94 % of control | dose: 200.0 mg/kg/injection, schedule: Q01DX001 (ip), vehicle: saline 91 % of control | dose: 400.0 mg/kg/injection, schedule: Q01DX001 (ip), vehicle: saline 91 % of control

O=C(O)c1ccccc1C(=O)Nc1cccc2ccccc12
inactive: dose: 100.0 mg/kg/injection, schedule: Q04DX002 (ip), vehicle: Klucel (hydroxypropylcellulose) (HPC) 88 % of control | dose: 200.0 mg/kg/injection, schedule: Q04DX002 (ip), vehicle: Klucel (hydroxypropylcellulose) (HPC) 104 % of control

O=C1CNC(=O)N1c1cccc(Cl)c1
inactive: [9] 100 % of control | [10] 100 % of control | dose: 400.0 mg/kg/injection, schedule: Q04DX003 (ip), vehicle: saline with Tween-80 102 % of control

CCC(=O)NC(N)=S
inactive: [17] 96 % of control | [18] 94 % of control
